Assay results reported in patent US4194055A, “15,16-dioxy prostenoic acids and esters” (American Cyanamid Company, priority 1978, dated 1980).

Legend:
[1] = system: basal gastric acid secretion; assay: Inhibition of gastric acid secretion in the acute gastric fistula rat; type: in vivo, Female Sprague-Dawley rats; conditions: intraduodenal
Procedure: The compounds of this invention are also useful as inhibitors of gastric acid secretion and peptic ulcer formation and may be used for the treatment of gastric hyperacidity, gastric erosion, and peptic ulcer. Inhibition of basal gastric acid secretion can be determined by the following procedure.
Female Sprague-Dawley rats weighing 140-160 grams are fasted in individual cages for 18-24 hours. The rats are then lightly anesthetized with ether and their front teeth extracted to avoid destruction of the plastic cannula. A midline incision is then made and the stomach and duodenum exposed. A flanged polyvinyl tube is inserted into the fundic portion of the stomach and secured with a purse string suture line using 4-O Mersilene. The rat is then dosed by injection of the compound into the duodenum (1.0 ml. per 100 gram body weight). After dosing, the abdominal wall and skin are closed using metal wound clips. The rat is replaced in a cage containing a longitudinal slit to allow the polyvinyl tube to hang freely. An 8 ml. plastic collecting tube is attached to the flanged cannula and hangs freely below the cage. The first 30 minute sample is discarded designating this time as zero. The collecting tube is attached again and samples removed at the end of 60 and 120 minutes. The hourly samples are then transferred to a 15 ml. centrifuge and centrifuged for 5-10 minutes. Total and sediment volume are then recorded with the supernatant volume being used as volume of secretion. A 1 ml. or less aliquot is then removed and placed in a 50 ml. beaker containing 10 ml. of distilled water. This sample is then titrated using 0.01 N NaOH to pH 7.0 using a Beckman zeromatic pH meter. Volume, titratable acidity (meq/L) and total acid output (ueg/hour) are recorded. Percent inhibition is determined by comparison with the appropriate control. Groups of three rats were used for preliminary testing, and groups of six rats were used for dose-response evaluations. All compounds are administered in a vehicle consisting of 0.5% methocel, 0.4% tween 80, and saline at a constant volume of 1 ml./100 gram rat. Samples are dispersed by sonification. Percent inhibition is calculated on basis of concurrent vehicle control.
In Table B which follows is given the effect on total acid output after 60 minutes (response A) and 120 minutes (response B) for various doses of representative compounds of this invention.

[2] = system: Mean arterial blood pressure; assay: Hypotensive activity in anesthetized normotensive rats; type: in vivo, Royalhart, Wistar strain, male; conditions: Rattus norvegicus, iv, infused over one minute, read-out: % Decrease Mean Arterial Blood Pressure
Procedure: The animals used are Royalhart, Wistar strain, male, normotensive rats weighing 250-300 g. The rats are anesthetized using a 100 mg./ml. saline solution of urethane at a rate of 900 mg./kg. intraperitoneally.
The instrumentation used in a Brush model 260 recorder, Statham mode P23Db pressure transducer and Harvard model 940 infusion pump with a 6 cc syringe at speed 4.
The left carotid artery is cannulated with polyethylene tubing for arterial blood pressure. The left external juglar vein is cannulated with polyethylene tubing for […] the test compound is infused over a one minute period in a volume of 0.5 ml., […] (ethanol, 1 M NaHCO3 or saline) and then flushed with 0.4 ml. of saline.
Mean arterial blood pressure is then measured in two test animals per compound against a control value.

[3] = system: bronchospasms elicited by intravenous injections of acetylcholine; assay: Bronchodilator activity (Konzett assay) against acetylcholine; type: in vivo, guinea pigs; conditions: Cavia porcellus; three logarithmic cummulative intravenous doses; spasmogen acetylcholine i.v.; read-out: Bronchodilator Activity (Konzett Assays) ED50, Spasmogenic Agent Acetylcholine
Procedure: (§1) The compounds of this invention are useful as bronchodilators for the treatment of asthma and chronic bronchitis. Bronchodilator activity is determined in guinea pigs against bronchospasms elicited by intravenous injections of 5-hydroxytryptamine, histamine or acetylcholine by the Konzett procedure. [See J. Lulling, P. Lievens, F. El Sayed and J. Prignot, Arzneimittel-Forschung, 18, 955 (1968).]
(§2) In Table A which follows bronchodilator activity for representative compounds of this invention against one or more of three spasmogenic agents is expressed in an ED50 determined from the results obtained with three logarithmic cummulative intravenous doses.

[4] = system: bronchospasms elicited by intravenous injections of histamine; assay: Bronchodilator activity (Konzett assay) against histamine; type: in vivo, guinea pigs; conditions: Cavia porcellus; three logarithmic cummulative intravenous doses; spasmogen histamine i.v.; read-out: Bronchodilator Activity (Konzett Assays) ED50, Spasmogenic Agent Histamine
Procedure: as §1, §2

[5] = system: bronchospasms elicited by intravenous injections of 5-hydroxytryptamine; assay: Bronchodilator activity (Konzett assay) against 5-hydroxytryptamine; type: in vivo, guinea pigs; conditions: Cavia porcellus; three logarithmic cummulative intravenous doses; spasmogen 5-hydroxytryptamine i.v.; read-out: Bronchodilator Activity (Konzett Assays) ED50, Spasmogenic Agent 5-Hydroxytryptamine
Procedure: as §1, §2

[6] = system: basal gastric acid secretion; assay: Inhibition of gastric acid secretion in the acute gastric fistula rat; type: in vivo, Female Sprague-Dawley rats; conditions: oral

Compound: CCCCC1OC(C)(C)OC1/C=C/C1C(OC2CCCCO2)CC(=O)C1C/C=C\CCCC(=O)O (mixture of isomers) [d,l-erythro-9-oxo-11α-tetrahydropyranyloxy-15,16-isopropylidenedioxy-5-cis,13-trans-prostadienoic acid]
- % Inhibition of Total Acid Output After 60 min. ([1]; 10 mg./kg.): 55%
- % Inhibition of Total Acid Output After 120 min. ([1]; 10 mg./kg.): 29%

Compound: CCCC[C@@H](O)[C@@H](O)/C=C/[C@H]1CCC(=O)[C@@H]1CCCCCCC(=O)OCC (relative stereo) [d,l-erythro ethyl 9-oxo-15-epi-16-dihydroxy-13-trans-prostenoate]
- inhibition in vivo at 2.4 mg/kg [2]: 33%

Compound: CCCC[C@H](O)[C@H](O)/C=C/[C@H]1CCC(=O)[C@@H]1CCCCCCC(=O)O (relative stereo) [d,l-erythro-9-oxo-15,16-dihydroxy-13-trans-prostenoic acid]
- inhibition in vivo at 2.1 mg/kg [2]: 23%
- % Inhibition of Total Acid Output After 60 min. ([1]; 2.5 mg./kg.): 77%
- % Inhibition of Total Acid Output After 120 min. ([1]; 2.5 mg./kg.): 76%

Compound: CCCC[C@H](OC)[C@H](O)/C=C/[C@H]1CCC(=O)[C@@H]1CCCCCCC(=O)O (relative stereo) [d,1-erythro-9-oxo-15-hydroxy-16-methoxy-13-trans-prostenoic acid]
- inhibition in vivo at 2.1 mg/kg [2]: 29%
- ED50 [3]: > 0.32 mg/kg
- ED50 [4]: > 3.2 mg/kg

Compound: CCCC[C@@H](OC)[C@@H](O)/C=C/[C@H]1CCC(=O)[C@@H]1CCCCCCC(=O)OCC (relative stereo) [d,l-erythro ethyl 9-oxo-15-epi-hydroxy-16-methoxy-13-trans-prostenoate]
- inhibition in vivo at 2.3 mg/kg ([2]; 2.3 mg./kg.): 9%

Compound: CCCCC(O)C(O)/C=C/C1CCC(=O)C1CCCCCCC(=O)O (mixture of isomers) [all racemic erythro-9-oxo-15,16-dihydroxy-13-trans-prostenoic acid]
- ED50 [4]: 0.01 mg/kg
- ED50 [5]: 0.537 mg/kg

Compound: CCCC[C@H](O)[C@H](O)/C=C/[C@H]1[C@H](O)CC(=O)[C@@H]1C/C=C\CCCC(=O)O (relative stereo) [dl-erythro-9-oxo-11α,15,16-trihydroxy-5-cis,13-trans-prostadienoic acid]
- inhibition in vivo at 0.1 mg/kg ([2]; 0.1 mg./kg.): 6%
- ED50 [3]: 0.013 mg/kg
- ED50 [4]: 0.0098 mg/kg
- % Inhibition of Total Acid Output After 60 min. ([6]; 5 mg./kg.): 86%
- % Inhibition of Total Acid Output After 120 min. ([6]; 5 mg./kg.): 89%
- % Inhibition of Total Acid Output After 60 min. ([1]; 10 mg./kg.): 98%
- % Inhibition of Total Acid Output After 120 min. ([1]; 10 mg./kg.): 55%
- ED50 [5]: 0.024 mg/kg

Compound: CCCC[C@H](OC)[C@H](O)/C=C/[C@H]1C=CC(=O)[C@@H]1C/C=C\CCCC(=O)O (relative stereo) [d1-erythro-9-oxo-15-hydroxy-16-methoxy-5-cis,10,13-trans-prostatrienoic acid]
- inhibition in vivo at 1.9 mg/kg [2]: 26%

Compound: CCCC[C@@H](O)[C@@H](O)/C=C/[C@H]1C=CC(=O)[C@@H]1C/C=C\CCCC(=O)O (relative stereo) [dl-erythro-9-oxo-15-epi, 16-dihydroxy-5-cis,10,13-trans-prostatrienoic acid]
- inhibition in vivo at 2.1 mg/kg [2]: 54%

Compound: CCCC[C@@H](O)[C@@H](O)/C=C/[C@@H]1[C@@H](C/C=C\CCCC(=O)O)[C@@H](O)C[C@H]1O (relative stereo) [dl-erythro-9α,11α,15-epi,16-tetrahydroxy-5-cis,13-trans-prostadienoic acid]
- inhibition in vivo at 2.2 mg/kg ([2]; 2.2 mg./kg.): 20%

Compound: CCCC[C@@H](OC)[C@@H](O)/C=C/[C@H]1[C@H](O)CC(=O)[C@@H]1C/C=C\CCCC(=O)O (relative stereo) [dl-erythro-9-oxo-11α,15-epi-15-hydroxy-16-methoxy-5-cis,13-trans-prostadienoic acid]
- inhibition in vivo at 1.9 mg/kg [2]: 19%

Compound: CCCC[C@@H](O)[C@@H](O)/C=C/[C@H]1[C@H](O)CC(=O)[C@@H]1C/C=C\CCCC(=O)O (relative stereo) [dl-erythro-9-oxo-11α,15-epi,16-trihydroxy-5-cis,13-trans-prostadienoic acid]
- inhibition in vivo at 2 mg/kg ([2]; 2.0 mg./kg.): 57%
- ED50 [3]: 2.43 mg/kg
- % Inhibition of Total Acid Output After 60 min. ([6]; 10 mg./kg.): 66%
- % Inhibition of Total Acid Output After 120 min. ([6]; 10 mg./kg.): 65%
- % Inhibition of Total Acid Output After 60 min. ([1]; 10 mg./kg.): 100%
- % Inhibition of Total Acid Output After 120 min. ([1]; 10 mg./kg.): 82%
- ED50 [5]: 1.28 mg/kg

Compound: CCCCC(OC)C(O)/C=C/C1CCC(=O)C1CCCCCCC(=O)OCC (mixture of isomers) [all racemic erythro ethyl 9-oxo-15-hydroxy-16-methoxy-13-trans-prostenoate]
- % Inhibition of Total Acid Output After 60 min. ([1]; 10 mg./kg.): 43%
- % Inhibition of Total Acid Output After 120 min. ([1]; 10 mg./kg.): 0%

Compound: CCCC[C@@H](O)[C@@H](O)/C=C/[C@H]1CCC(=O)[C@@H]1CCCCCCC(=O)O (relative stereo) [d,l-erythro-9-oxo-15-epi,16-dihydroxy-13-trans-prostenoic acid]
- % Inhibition of Total Acid Output After 60 min. ([1]; 10 mg./kg.): 0%
- % Inhibition of Total Acid Output After 120 min. ([1]; 10 mg./kg.): 42%

Compound: CCCCC1OC(C)(C)OC1/C=C/C1CCC(=O)C1CCCCCCC(=O)O (mixture of isomers) [d,l-erythro-9-oxo-15,16-isopropylidenedioxy-13-trans-prostenoic acid]
- inhibition in vivo at 1.3 mg/kg ([2]; 1.3 mg./kg.): 63%
- inhibition in vivo at 2.5 mg/kg ([2]; 2.5 mg./kg.): 21%

Compound: CCCC[C@H](OC)[C@H](O)/C=C/[C@H]1[C@H](O)CC(=O)[C@@H]1C/C=C\CCCC(=O)O (relative stereo) [d,1-erythro-9-oxo-11α,15-dihydroxy-16-methoxy-5-cis,13-trans-prostadienoic acid]
- inhibition in vivo at 1.8 mg/kg ([2]; 1.8 mg./kg.): 44%

Compound: CCCC[C@@H](OC)[C@@H](O)/C=C/[C@H]1CCC(=O)[C@@H]1CCCCCCC(=O)O (relative stereo) [dl-erythro-9-oxo-15-epi-hydroxy-16-methoxy-13-trans-prostenoic acid]
- inhibition in vivo at 2.4 mg/kg [2]: 18%
- ED50 [3]: > 3.2 mg/kg
- ED50 [4]: > 3.2 mg/kg
- ED50 [5]: 7.99 mg/kg

Compound: CCCCC(O)C(O)CCC1CCC(=O)C1CCCCCCC(=O)O (racemic) [all racemic erythro-9-oxo-15,16-dihydroxy-prostanoic acid]
- % Inhibition of Total Acid Output After 60 min. ([1]; 10 mg./kg.): 56%
- % Inhibition of Total Acid Output After 120 min. ([1]; 10 mg./kg.): 46%
